Reference: patent US8822517B2, “Arylosulfonamides for the treatment of CNS diseases” (Adamed SP. Z O.O., priority 2010, dated 2014)
Where two headings read alike, the source gives them in different places.

What was measured:
[1] = target: T1, serotoninergic 5-HT7 receptor (Homo sapiens, UniProt P34969); experiment: Cellular functional assay, serotoninergic 5-HT7 receptor (agonism/antagonism); type: cell-based; details: for activation at 1 µM: agonist effect, percent of control specific agonist response, compounds tested at 1×10^−6M, read-out: 5-HT7-ag [%]; for inhibition at 1 µM: read-out: 5-HT7-antag. [%]
T1 sequence (P34969 whole entry): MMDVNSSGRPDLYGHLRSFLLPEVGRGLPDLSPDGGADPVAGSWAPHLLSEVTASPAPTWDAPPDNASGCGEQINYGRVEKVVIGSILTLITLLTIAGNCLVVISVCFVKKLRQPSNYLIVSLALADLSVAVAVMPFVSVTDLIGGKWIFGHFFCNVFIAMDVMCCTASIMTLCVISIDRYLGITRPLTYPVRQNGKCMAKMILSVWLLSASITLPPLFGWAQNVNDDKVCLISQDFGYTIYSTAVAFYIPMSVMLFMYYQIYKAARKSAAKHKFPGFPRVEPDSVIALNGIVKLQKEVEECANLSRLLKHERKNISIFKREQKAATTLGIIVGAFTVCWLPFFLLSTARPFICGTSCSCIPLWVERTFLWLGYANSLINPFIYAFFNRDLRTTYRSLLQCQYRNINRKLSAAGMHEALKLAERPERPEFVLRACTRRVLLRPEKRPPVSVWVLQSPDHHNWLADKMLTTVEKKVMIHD
Protocol: (§1) The compounds were tested at the concentration of 1×10^−6M.
(§2) In the Tables ag refers to agonism, and antag to antagonism).

[2] = target: T2, serotoninergic 5-HT2A receptor (Homo sapiens, UniProt P28223); experiment: Binding assay 5-HT2A (h), [3H]ketanserin, HEK-293 cells; set-up: expressed in transfected cells; host or cells: HEK-293 cells; details: read-out: 5-HT2A
Summary of the method: (§3)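 Test conc. 1×10^−6 M. Read-out by scintillation counting. Specific = total − nonspecific (excess cold ligand).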

muscarinic M3 receptor = target: T3, muscarinic M3 receptor (Homo sapiens, UniProt P20309); experiment: Binding assay M3 (h), [3H]4-DAMP, CHO cells; details: read-out: M3 [%]
T3 construct: expressed in transfected cells; host or cells: CHO cells
T3 sequence (P20309 whole entry): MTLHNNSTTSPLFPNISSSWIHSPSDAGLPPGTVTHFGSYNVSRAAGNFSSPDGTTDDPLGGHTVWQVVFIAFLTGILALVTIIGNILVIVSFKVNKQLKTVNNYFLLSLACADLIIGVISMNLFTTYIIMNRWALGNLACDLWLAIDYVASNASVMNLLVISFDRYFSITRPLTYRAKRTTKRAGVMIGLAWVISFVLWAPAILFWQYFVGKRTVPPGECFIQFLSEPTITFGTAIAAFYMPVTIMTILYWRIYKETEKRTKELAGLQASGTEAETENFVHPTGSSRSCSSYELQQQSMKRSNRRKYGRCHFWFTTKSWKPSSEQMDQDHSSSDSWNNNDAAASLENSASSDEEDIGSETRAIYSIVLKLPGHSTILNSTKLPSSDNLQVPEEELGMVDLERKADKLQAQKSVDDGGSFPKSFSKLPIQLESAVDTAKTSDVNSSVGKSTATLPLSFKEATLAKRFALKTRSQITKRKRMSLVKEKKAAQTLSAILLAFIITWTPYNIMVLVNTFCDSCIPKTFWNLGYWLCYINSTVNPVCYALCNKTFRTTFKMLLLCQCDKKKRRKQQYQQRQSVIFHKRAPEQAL
Summary of the method: as §3

[3] = target: T4, serotoninergic receptor 5-HT2C (Homo sapiens, UniProt P28335); experiment: Binding assay 5-HT2C (h), [3H]mesulergine, HEK-293 cells; details: read-out: 5-HT2C [%]
T4 construct: expressed in transfected cells; host or cells: HEK-293 cells
T4 sequence (P28335 33-458): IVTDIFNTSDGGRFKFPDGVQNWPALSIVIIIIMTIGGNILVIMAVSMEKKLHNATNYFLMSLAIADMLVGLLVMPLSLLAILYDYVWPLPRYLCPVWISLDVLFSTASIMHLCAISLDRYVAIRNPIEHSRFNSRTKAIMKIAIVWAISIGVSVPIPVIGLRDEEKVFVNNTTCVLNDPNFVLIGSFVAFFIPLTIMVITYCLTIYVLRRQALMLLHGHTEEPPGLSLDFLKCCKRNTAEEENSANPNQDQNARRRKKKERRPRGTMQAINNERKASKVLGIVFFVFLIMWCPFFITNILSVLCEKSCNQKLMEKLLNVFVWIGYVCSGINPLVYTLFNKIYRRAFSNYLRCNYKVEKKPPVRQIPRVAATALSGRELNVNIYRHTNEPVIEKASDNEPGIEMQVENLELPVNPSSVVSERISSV
Summary of the method: as §3

dopaminergic D3 receptor = dopaminergic D3 receptor (Homo sapiens, UniProt P35462); experiment: Binding assay D3 (h), [3H]methyl-spiperone, CHO cells; set-up: expressed in transfected cells; host or cells: CHO cells; details: read-out: D3 [%]
Chain of dopaminergic D3 receptor (P35462 whole entry): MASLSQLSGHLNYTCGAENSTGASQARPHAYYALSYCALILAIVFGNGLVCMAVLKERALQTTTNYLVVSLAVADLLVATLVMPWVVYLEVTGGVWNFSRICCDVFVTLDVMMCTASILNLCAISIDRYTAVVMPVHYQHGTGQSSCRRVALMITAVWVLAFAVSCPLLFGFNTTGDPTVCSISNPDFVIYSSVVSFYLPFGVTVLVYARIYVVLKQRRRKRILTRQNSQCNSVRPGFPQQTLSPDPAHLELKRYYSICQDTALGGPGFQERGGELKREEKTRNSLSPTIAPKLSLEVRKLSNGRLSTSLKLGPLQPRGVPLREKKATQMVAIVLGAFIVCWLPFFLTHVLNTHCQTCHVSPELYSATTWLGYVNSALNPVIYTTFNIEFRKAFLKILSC
Summary of the method: as §3

[4] = target: T5, serotoninergic 5-HT6 receptor (Homo sapiens, UniProt P50406); experiment: Binding assay 5-HT6 (h), [3H]LSD, CHO cells; set-up: expressed in transfected cells; host or cells: CHO cells; details: read-out: 5-HT6
T5 sequence (P50406 whole entry): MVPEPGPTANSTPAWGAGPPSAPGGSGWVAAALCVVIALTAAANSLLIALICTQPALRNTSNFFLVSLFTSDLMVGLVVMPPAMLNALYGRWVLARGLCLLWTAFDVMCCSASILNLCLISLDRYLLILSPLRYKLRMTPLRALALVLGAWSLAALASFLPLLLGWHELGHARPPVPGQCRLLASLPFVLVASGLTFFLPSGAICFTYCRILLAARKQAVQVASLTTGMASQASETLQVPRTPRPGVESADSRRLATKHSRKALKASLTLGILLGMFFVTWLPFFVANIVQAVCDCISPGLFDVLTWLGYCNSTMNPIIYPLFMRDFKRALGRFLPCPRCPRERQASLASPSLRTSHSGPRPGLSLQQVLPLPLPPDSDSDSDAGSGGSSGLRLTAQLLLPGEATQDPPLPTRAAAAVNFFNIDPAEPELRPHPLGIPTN
Summary of the method: as §3

[5] = target: histaminergic H1 receptor (Homo sapiens, UniProt P35367); experiment: Binding assay H1 (h), [3H]pyrilamine, HEK-293 cells; set-up: expressed in transfected cells; host or cells: HEK-293 cells; details: read-out: H1 [%]
Chain of histaminergic H1 receptor (P35367 whole entry): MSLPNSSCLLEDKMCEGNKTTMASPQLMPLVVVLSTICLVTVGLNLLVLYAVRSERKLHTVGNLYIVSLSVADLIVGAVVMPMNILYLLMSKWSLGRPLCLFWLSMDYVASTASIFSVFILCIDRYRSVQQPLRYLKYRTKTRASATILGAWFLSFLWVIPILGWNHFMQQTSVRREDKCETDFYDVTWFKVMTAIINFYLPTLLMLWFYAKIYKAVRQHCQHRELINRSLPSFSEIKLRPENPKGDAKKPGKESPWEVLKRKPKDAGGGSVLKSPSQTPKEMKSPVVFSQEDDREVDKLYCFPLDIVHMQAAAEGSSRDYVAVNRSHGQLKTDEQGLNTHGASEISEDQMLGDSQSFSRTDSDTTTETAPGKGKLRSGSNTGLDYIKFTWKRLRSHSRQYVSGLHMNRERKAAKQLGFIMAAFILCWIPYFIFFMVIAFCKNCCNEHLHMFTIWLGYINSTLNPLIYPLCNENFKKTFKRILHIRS
Summary of the method: as §3

[6] = target: T6, serotoninergic 5-HT1A receptor (Homo sapiens, UniProt P08908); experiment: Binding assay 5-HT1A (h), [3H]8-OH-DPAT, HEK-293 cells; set-up: expressed in transfected cells; host or cells: HEK-293 cells; details: read-out: 5-HT1A
T6 sequence (P08908 1-422): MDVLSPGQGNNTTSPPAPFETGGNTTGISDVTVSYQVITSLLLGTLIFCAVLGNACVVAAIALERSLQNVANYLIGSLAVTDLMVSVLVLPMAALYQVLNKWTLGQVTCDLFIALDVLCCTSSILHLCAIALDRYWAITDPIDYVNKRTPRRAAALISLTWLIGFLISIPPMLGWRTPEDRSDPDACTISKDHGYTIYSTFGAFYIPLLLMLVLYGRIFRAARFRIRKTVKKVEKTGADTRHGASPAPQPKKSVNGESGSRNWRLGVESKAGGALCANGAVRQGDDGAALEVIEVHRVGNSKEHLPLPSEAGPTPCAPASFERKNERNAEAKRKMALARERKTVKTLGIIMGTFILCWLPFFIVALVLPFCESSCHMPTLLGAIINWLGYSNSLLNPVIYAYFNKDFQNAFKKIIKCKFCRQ
Summary of the method: as §3

[7] = target: T1, serotoninergic 5-HT7 receptor; experiment: Binding assay 5-HT7 (h), [3H]LSD, CHO cells; set-up: expressed in transfected cells; host or cells: CHO cells; details: read-out: 5-HT7
Summary of the method: as §3

dopaminergic D2 receptor [8] = target: T7, dopaminergic D2 receptor (Homo sapiens, UniProt P14416); experiment: Binding assay D2S (h), [3H]methyl-spiperone, HEK-293 cells; set-up: expressed in transfected cells; host or cells: HEK-293 cells; details: read-out: D2 [%]
Summary of the method: as §3

[9] = target: T2, serotoninergic 5-HT2A receptor; experiment: Cellular functional assay, serotoninergic 5-HT2A receptor (agonism/antagonism); type: cell-based
Protocol: […]. The compounds were tested at the concentration of 1×10^−6M.
Conditions and methodology (by reference to the literature) of cellular functional assays are given in Table 13 and the tests results for representative compounds are given in Table 14 (dopaminergic receptor D2), in Table 15 (dopaminergic receptor D3), in Table 16 (serotoninergic receptor 5-HT1A), in Table 17 (serotoninergic receptor 5-HT2A), in Table 18 (serotoninergic receptor 5-HT6), in Table 19 (serotoninergic receptor 5-HT7), in Table 20 (adrenergic α1 receptor), in Table 21 (adrenergic α2C receptor), in Table 22 (histaminergic H1 receptor) and in Table 23 (serotoninergic 5-HT2C receptor). In the Tables ag refers to agonism, and antag to antagonism).

dopaminergic D2 receptor [10] = target: T7, dopaminergic D2 receptor; experiment: Cellular functional assay, dopaminergic D2 receptor (agonism/antagonism); type: cell-based; details: for inhibition at 1 µM: read-out: D2-antag. [%]
Protocol: as §1, §2
Target sequence in this assay (P14416 whole entry): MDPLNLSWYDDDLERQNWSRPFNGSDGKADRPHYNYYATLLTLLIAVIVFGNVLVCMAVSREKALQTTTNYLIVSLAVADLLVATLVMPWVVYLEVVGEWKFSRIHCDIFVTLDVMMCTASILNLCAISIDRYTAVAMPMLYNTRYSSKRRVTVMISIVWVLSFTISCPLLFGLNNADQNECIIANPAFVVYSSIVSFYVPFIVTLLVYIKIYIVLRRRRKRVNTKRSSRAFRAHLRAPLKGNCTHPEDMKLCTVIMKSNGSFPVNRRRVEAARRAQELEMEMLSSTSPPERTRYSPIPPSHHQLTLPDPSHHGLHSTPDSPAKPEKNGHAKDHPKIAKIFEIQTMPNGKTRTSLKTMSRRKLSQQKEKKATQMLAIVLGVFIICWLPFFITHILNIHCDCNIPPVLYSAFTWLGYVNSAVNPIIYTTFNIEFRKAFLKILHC

adrenergic α1 receptor = experiment: Binding assay α1 (non-selective), [3H]prazosin, rat cerebral cortex; details: percent inhibition of control specific binding; compounds tested at 1×10^−6 M
Summary of the method: as §3

adrenergic α2C receptor = target: T8, adrenergic α2C receptor (Homo sapiens, UniProt P18825); experiment: Binding assay α2C (h), [3H]RX 821002, CHO cells; set-up: expressed in transfected cells; host or cells: CHO cells; details: read-out: α2C [%]
T8 sequence (P18825 1-462): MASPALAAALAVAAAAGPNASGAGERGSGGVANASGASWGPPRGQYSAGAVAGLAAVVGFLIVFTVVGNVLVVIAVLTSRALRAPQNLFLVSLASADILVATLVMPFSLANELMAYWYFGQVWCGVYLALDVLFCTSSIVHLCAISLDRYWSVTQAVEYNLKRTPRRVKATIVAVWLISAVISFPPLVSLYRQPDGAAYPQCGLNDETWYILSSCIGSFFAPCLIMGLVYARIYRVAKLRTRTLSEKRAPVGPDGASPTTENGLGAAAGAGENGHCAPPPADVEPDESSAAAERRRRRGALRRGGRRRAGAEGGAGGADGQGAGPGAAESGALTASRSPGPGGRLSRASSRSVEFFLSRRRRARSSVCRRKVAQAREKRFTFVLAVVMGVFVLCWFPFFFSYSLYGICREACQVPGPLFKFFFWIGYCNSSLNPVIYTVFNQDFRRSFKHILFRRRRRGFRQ
Summary of the method: as §3

[11] = target: T5, serotoninergic 5-HT6 receptor; experiment: Cellular functional assay, serotoninergic 5-HT6 receptor (agonism/antagonism); type: cell-based; details: for activation at 1 µM: agonist effect, percent of control specific agonist response, compounds tested at 1×10^−6M, read-out: 5-HT6-ag [%]; for inhibition at 1 µM: read-out: 5-HT6-antag. [%]
Protocol: as §1, §2

sigma σ receptor = experiment: Binding assay σ (non-selective), [3H]DTG, rat cerebral cortex; details: percent inhibition of control specific binding; compounds tested at 1×10^−6 M
Summary of the method: as §3

[12] = target: T9, serotonine transporter (SERT) receptor (Homo sapiens, UniProt P31645); experiment: Binding assay SERT (h), [3H]imipramine, CHO cells; details: read-out: SERT [%]
T9 construct: expressed in transfected cells; host or cells: CHO cells
T9 sequence (P31645 whole entry): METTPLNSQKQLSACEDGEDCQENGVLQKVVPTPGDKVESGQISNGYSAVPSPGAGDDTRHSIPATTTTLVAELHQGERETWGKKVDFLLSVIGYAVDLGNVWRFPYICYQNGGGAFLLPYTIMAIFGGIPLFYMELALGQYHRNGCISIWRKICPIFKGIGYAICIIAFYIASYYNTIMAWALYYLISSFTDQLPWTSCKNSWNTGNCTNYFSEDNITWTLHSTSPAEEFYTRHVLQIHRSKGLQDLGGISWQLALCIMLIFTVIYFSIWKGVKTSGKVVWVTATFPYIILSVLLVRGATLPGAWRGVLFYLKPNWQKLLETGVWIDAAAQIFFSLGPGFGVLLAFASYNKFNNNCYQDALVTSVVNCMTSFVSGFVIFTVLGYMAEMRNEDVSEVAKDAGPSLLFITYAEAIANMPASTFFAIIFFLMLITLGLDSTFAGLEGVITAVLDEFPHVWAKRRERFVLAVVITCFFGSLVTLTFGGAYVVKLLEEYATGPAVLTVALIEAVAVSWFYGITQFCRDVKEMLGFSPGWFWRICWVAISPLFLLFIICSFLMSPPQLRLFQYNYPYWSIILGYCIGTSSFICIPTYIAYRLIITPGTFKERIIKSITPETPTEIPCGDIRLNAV
Summary of the method: as §3

hERG potassium channels = hERG potassium channels (Homo sapiens, UniProt Q12809); experiment: hERG potassium channel block, electrophysiology (IonWorks Quattro), CHO cells; details: % block of hERG current, cloned hERG channels in CHO cells, IonWorks Quattro
Chain of hERG potassium channels (Q12809 whole entry): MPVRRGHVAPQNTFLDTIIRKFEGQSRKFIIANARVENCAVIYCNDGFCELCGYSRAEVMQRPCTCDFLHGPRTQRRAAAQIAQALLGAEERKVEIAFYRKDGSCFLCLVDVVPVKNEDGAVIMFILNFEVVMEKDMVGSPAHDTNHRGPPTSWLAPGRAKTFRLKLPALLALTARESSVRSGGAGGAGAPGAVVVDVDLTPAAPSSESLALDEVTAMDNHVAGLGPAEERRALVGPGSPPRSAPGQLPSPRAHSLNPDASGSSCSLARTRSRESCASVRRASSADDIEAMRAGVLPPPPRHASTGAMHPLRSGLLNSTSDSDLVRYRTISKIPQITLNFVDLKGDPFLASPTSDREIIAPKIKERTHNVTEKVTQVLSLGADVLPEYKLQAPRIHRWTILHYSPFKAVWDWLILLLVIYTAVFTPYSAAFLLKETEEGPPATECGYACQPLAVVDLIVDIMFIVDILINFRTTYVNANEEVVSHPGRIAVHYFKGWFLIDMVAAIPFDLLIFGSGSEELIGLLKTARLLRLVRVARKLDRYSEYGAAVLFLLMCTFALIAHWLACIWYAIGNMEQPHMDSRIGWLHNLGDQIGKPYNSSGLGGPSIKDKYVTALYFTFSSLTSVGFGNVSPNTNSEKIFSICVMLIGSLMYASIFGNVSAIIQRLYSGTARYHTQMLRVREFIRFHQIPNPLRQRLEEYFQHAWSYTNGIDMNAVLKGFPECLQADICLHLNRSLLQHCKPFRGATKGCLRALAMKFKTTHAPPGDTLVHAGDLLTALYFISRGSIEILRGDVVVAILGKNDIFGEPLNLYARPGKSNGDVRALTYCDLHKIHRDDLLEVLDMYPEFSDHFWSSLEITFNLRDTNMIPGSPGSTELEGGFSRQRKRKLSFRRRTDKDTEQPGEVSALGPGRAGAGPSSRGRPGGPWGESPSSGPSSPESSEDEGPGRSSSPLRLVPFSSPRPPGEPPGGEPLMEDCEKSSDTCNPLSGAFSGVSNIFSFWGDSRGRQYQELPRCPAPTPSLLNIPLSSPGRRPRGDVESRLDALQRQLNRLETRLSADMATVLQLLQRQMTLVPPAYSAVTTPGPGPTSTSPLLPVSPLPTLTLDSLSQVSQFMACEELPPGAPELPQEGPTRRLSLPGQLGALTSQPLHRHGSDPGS
Protocol: Ability to block hERG potassium channels was determined using the electrophysiological method and cloned hERG potassium channels (KCNH2 gene, expressed in CHO cells) as biological material. The effects were evaluated using IonWorks™ Quattro system (MDS-AT).
hERG current was elicited using a pulse pattern with fixed amplitudes (conditioning prepulse: −80 mV for 25 ms; test pulse: +40 mV for 80 ms) from a holding potential of 0 mV. hERG current was measured as a difference between the peak current at 1 ms after the test step to +40 mV and the steady-state current at the end of the step to +40 mV.
Data acquisition and analyses was performed using the IonWorks Quattro™ system operation software (version 2.0.2; Molecular Devices Corporation, Union City, Calif.). Data were corrected for leak current.

[13] = target: T6, serotoninergic 5-HT1A receptor; experiment: Cellular functional assay, serotoninergic 5-HT1A receptor (agonism/antagonism); type: cell-based; details: for inhibition at 1 µM: CHO, read-out: 5-HT1A-antag. [%]; for activation at 1 µM: agonist effect, percent of control specific agonist response (100 nM 8-OH-DPAT for control), 1×10^−6 M, 5-HT1A (h), CHO cells, read-out: 5-HT1A-ag [%]
Protocol: as §1, §2

[14] = HEK293, agonist effect, percent of control specific agonist response (3 μM dopamine for control), 1×10^−6 M, D2S (h), HEK-293 cells, read-out: D2-ag [%]

SMILES	activation at 1 µM [1] [%]	inhibition at 1 µM [1] [%]	inhibition at 1 µM [2] [%]	inhibition at 1 µM (muscarinic M3 receptor) [%]	inhibition at 1 µM [3] [%]	inhibition at 1 µM (dopaminergic D3 receptor) [%]	inhibition at 1 µM [4] [%]	inhibition at 1 µM [5] [%]	inhibition at 1 µM [6] [%]	inhibition at 1 µM [7] [%]	inhibition at 1 µM (dopaminergic D2 receptor [8]) [%]	activation at 1 µM (dopaminergic D2 receptor [10]; [14]) [%]	inhibition at 1 µM (dopaminergic D2 receptor [10]; HEK293) [%]	α1 [%] (adrenergic α1 receptor)	inhibition at 1 µM (adrenergic α2C receptor) [%]	activation at 1 µM [11] [%]	inhibition at 1 µM [11] [%]	σ [%] (sigma σ receptor)	inhibition at 1 µM [12] [%]	hERG [%] (hERG potassium channels)	also measured
Cc1cccc(S(=O)(=O)NCCCCN2CCN(c3noc4ccccc34)CC2)c1 [Compound 15, N-(4-(4-(1,2-Benzoxazol-3-yl)piperazin-1-yl)butyl)-3-methylbenzenesulphonamide]	0	96	99	-9	23	88	71	84	86	100	90	2	88	102	98	2	21	47	-3		activation at 1 µM ([9]; read-out: 5-HT2A -ag [%]): -1%; inhibition at 1 µM ([9]; read-out: 5-HT2A -antag [%]): 100%
O=S(=O)(NCCCCN1CCC(c2noc3cc(F)ccc23)CC1)c1cccc2ccccc12 [Compound 17, N-[4-[4-(6-Fluoro-1,2-benzoxazol-3-yl)piperidin-1-yl]butyl]naphthalene-1-sulphonamide]		95	100	7	62	93	99	80	84	99	98				100	2	69		44	24	
O=S(=O)(NCCCCN1CCN(c2cccc3[nH]ccc23)CC1)c1ccc(F)c(F)c1 [Compound 29, 3,4-Difluoro-N-{4-[4-(1H-indol-4-yl)piperazin-1-yl]butyl}benzenesulphonamide]	5	9	64	25	11	98	37	74	99	91	94	45	99	99	98			93	12		inhibition at 1 µM [13]: 26%; activation at 1 µM [13]: 71%
O=S(=O)(NCCCCN1CCN(c2cccc3[nH]ccc23)CC1)c1c[nH]c2ncccc12 [Compound 31, N-{4-[4-(1H-Indol-4-yl)piperazin-1-yl]butyl}-1H-pyrrolo[2,3-b]pyridine-3-sulphonamide]			36			96	18		82	87	38			101					-2	2	
O=S(=O)(NCCCCN1CCN(c2cccc3[nH]ccc23)CC1)c1ccc(C(F)(F)F)cc1 [Compound 360, N-[4-[4-(1H-Indol-4-yl)piperazin-1-yl]butyl]-4-(trifluoromethyl)benzenesulphonamide]			67			100	67		83	100	99			93					8	5	
Cc1[nH]c2ccc(Cl)cc2c1C1=CCN(CCNS(=O)(=O)c2cccc(Cl)c2)CC1 [Compound 452, 3-Chloro-N-[2-[4-(5-chloro-2-methyl-1H-indol-3-yl)-3,6-dihydro-2H-pyridin-1-yl]ethyl]-benzenesulphonamide]						14	108			41	42		53	14					18		inhibition at 1 µM [13]: 7%; activation at 1 µM [13]: 30%; activation at 1 µM (dopaminergic D2 receptor [10]; HEK293, read-out: D2-ag [%]): 24%
